Literature values, collected in patent US4271152A, “Psycho-pharmacological peptides” (Akzo N.V., priority 1979, dated 1981).
“Also recorded” adds a separate entry of the source.

Key:
[1] = tested on: avoidance behaviour of rats; details: pole-jumping test; for extinction of the (pole-jumping) avoidance behaviour: background knowledge / earlier Dutch application
[2] = can be antagonized by naloxon

Row | Substance | affinity to the opiate receptor (opiate receptor) | extinction of the (pole-jumping) avoidance behaviour [1] | counteraction by morphine antagonists (naloxon, naltrexon) of the inhibition of extinction [1] | analgetic effect [2]
1 | D-Ala^2 -Met-enkephalin | affinity to the opiate receptor | – | – | –
2 | Leu-enkephaline | affinity to the opiate receptor | – | – | –
3 | Met-enkephalin | affinity to the opiate receptor | inhibit the extinction of the avoidance behaviour | – | –
4 | α-endorphin | affinity to the opiate receptor | inhibit the extinction of the avoidance behaviour; also recorded: delayed the extinction of the avoidance behaviour | – | –
5 | β-endorphin (YGGFMTSEKSQTPLVTLFKNAIIKNAYKKGE; Beta-endorphin; UniProt P01189 237-267, looked up) | – | inhibits the extinction | cannot be counteracted by known morphine antagonists | analgetic effect
6 | γ-endorphin | – | accelerate the extinction of the avoidance behaviour | – | –
